Earlier results on one compound are cited in US20090263467A1, “COMBINATION DRUG THERAPY USING ORALLY DISSOLVING FILM OR ORALLY DISINTEGRATING TABLET DOSAGE FORMS TO TREAT DRY MOUTH AILMENTS” (priority 2008, published 2009).

For series [1] the following is noted: neutral pH.

Take `CC[C@@H]1C(=O)OC[C@@H]1Cc1cncn1C` [Pilocarpine]: the half-life is 45.6 min. In series [1], the permeability entry was “higher”.

The term half-life denotes the time in which the quantity being followed falls by half.
